Test results taken from patent publication US20260226073A1 (AURIGENE ONCOLOGY LIMITED, priority 2023, published 2026).

Key:
[1] = biological target: T1, human recombinant CBL-b (human Biotin CBL-b recombinant protein a.a. 39-426) (Homo sapiens, UniProt Q13191); experiment: Biochemical assay for CBL-b inhibition (ligand displacement TR-FRET); type: binding; conditions: 50 nM CBL-b, 0.3 μM Bodipy FL-Probe, read-out: IC50 (CBL-b inhibition, group)
T1 construct: human Biotin CBL-b recombinant protein a.a; 39-426; Biotin (biotinylated); made in house
Procedure, shortened: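 Ligand-displacement TR-FRET: 0.3 μM Bodipy FL probe competes with compound for 50 nM biotin-CBL-b (aa 39-426) after a 60 min RT compound pre-incubation; terbium-streptavidin detection, 60 min each step. Dose-response sigmoidal fitting gave IC50 and % maximum inhibition.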

[2] = tested on: NFAT signaling pathway in Jurkat NFAT reporter cells; experiment: Jurkat NFAT reporter assay; type: cell-based; conditions: Homo sapiens, 30 min with compound, then soluble anti-human CD3/CD28 antibody for 6 hours, luciferase readout, read-out: EC50 (Group)
Procedure, shortened: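 Results are expressed as fold change relative to stimulated, inhibitor-free cells. Stimulation was 6 h with soluble anti-human CD3/CD28 antibody after a 30-min exposure of 1×10^5 NFAT-RE luciferase Jurkat reporter cells per well to the Cbl-b inhibitor; signal read by Bio-Glo bioluminescence.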

T1 sequence (Q13191 39-426): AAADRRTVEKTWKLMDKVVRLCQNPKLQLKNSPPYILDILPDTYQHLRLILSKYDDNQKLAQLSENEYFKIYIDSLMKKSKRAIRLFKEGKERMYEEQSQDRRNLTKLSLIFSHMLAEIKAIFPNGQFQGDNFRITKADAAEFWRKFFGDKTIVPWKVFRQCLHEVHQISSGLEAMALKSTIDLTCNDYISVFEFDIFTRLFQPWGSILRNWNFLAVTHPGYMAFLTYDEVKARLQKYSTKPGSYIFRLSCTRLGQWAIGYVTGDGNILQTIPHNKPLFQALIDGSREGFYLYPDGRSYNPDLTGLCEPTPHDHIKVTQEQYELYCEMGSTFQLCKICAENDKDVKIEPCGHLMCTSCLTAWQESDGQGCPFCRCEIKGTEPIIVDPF

| IC50 [1] [nM] | EC50 [2] [nM] | SMILES |
| --- | --- | --- |
| 80 to 300 | 300 to 1000 | C[C@H]1CCN(Cc2cc(N3Cc4ccc(C5(Cc6nncn6C)COC5)cc4C3=O)nc(C(F)(F)F)c2)C1 [Compound 34, (S)-6-(3-((4-Methyl-4H-1,2,4-triazol-3-yl)methyl)oxetan-3-yl)-2-(4-((3-methyl-pyrrolidin-1-yl)methyl)-6-(trifluoromethyl)pyridin-2-yl)isoindolin-1-one] |
| < 80 | < 300 | C[C@H]1CCCN(Cc2cc(Br)cc(N3Cc4ccc(C5(Cc6nncn6C)COC5)cc4C3=O)c2)C1 [Compound 10, (S)-2-(3-Bromo-5-((3-methylpiperidin-1-yl)methyl)phenyl)-6-(3-((4-methyl-4H-1,2,4-triazol-3-yl)methyl)oxetan-3-yl)isoindolin-1-one] |
| < 80 | < 300 | CCC1CCCN(Cc2cc(Cl)nc(N3Cc4ccc(C5(Cc6nncn6C)COC5)cc4C3=O)c2)C1 (stereo not drawn) [Compound 148, 2-(6-Chloro-4-((3-ethylpiperidin-1-yl)methyl)pyridin-2-yl)-6-(3-((4-methyl-4H-1,2,4-triazol-3-yl)methyl)oxetan-3-yl)isoindolin-1-one] |
| 300 to 5000 | 300 to 1000 | Cn1cnnc1CC1(c2ccc3c(c2)C(=O)N(c2cc(CNC4(C)CCC4)cc(C(F)(F)F)n2)C3)COC1 [Compound 88, 6-(3-((4-Methyl-4H-1,2,4-triazol-3-yl)methyl)oxetan-3-yl)-2-(4-(((1-methyl-cyclobutyl)amino)methyl)-6-(trifluoromethyl)pyridin-2-yl)isoindolin-1-one] |
| 300 to 5000 | 1000 to 10000 | CC1CCCCN1Cc1cc(N2Cc3ccc(C4(Cc5nncn5C)COC4)cc3C2=O)nc(C(F)(F)F)c1 (stereo not drawn) [Compound 45, 6-(3-((4-Methyl-4H-1,2,4-triazol-3-yl)methyl)oxetan-3-yl)-2-(4-((2-methyl-piperidin-1-yl)methyl)-6-(trifluoromethyl)pyridin-2-yl)isoindolin-1-one] |
| < 80 | 1000 to 10000 | Cc1cc(CNCC2CC2)cc(N2Cc3c(F)cc(-c4ccc(F)cc4-c4nncn4C)cc3C2=O)n1 [Compound 296] |
| 300 to 5000 | 1000 to 10000 | C[C@H]1CCCN(Cc2cc(Cl)nc(N3Cc4ccc([C@]5(c6nncn6C)C[C@@H](C)C5)cc4C3=O)c2)C1 [Compound 58, 2-(6-Chloro-4-(((S)-3-methylpiperidin-1-yl)methyl)pyridin-2-yl)-6-((1s,3R)-3-methyl-1-(4-methyl-4H-1,2,4-triazol-3-yl)cyclobutyl)isoindolin-1-one] |
| 80 to 300 | 1000 to 10000 | Cn1cnnc1CC1(c2ccc3c(c2)C(=O)N(c2cc(CN4CCCC(C#N)C4)cc(C(F)(F)F)n2)C3)COC1 (stereo not drawn) [Compound 29, 1-((2-(6-(3-((4-Methyl-4H-1,2,4-triazol-3-yl)methyl)oxetan-3-yl)-1-oxoisoindo-lin-2-yl)-6-(trifluoromethyl)pyridin-4-yl)methyl)piperidine-3-carbonitrile] |
| < 80 | 300 to 1000 | Cn1cnnc1CC1(c2ccc3c(c2)C(=O)N(c2cc(CNCC4CC4)cc(Cl)n2)C3)CC(C#N)C1 (stereo not drawn) [Compound 156] |
| 80 to 300 | 1000 to 10000 | COc1cc(CN2CCC[C@H](C)C2)cc(N2Cc3ccc(C4(Cc5nncn5C)COC4)cc3C2=O)c1 [Compound 5, (S)-2-(3-Methoxy-5-((3-methylpiperidin-1-yl)methyl)phenyl)-6-(3-((4-methyl-4H-1,2,4-triazol-3-yl)methyl)oxetan-3-yl)isoindolin-1-one] |
| < 80 | 300 to 1000 | CC1CN(Cc2cc(Cl)nc(N3Cc4ccc(C5(Cc6nncn6C)COC5)cc4C3=O)c2)CC1F (stereo not drawn) [Compound 197] |
| < 80 | 1000 to 10000 | Cn1cnnc1CC1(c2ccc3c(c2)C(=O)N(c2cc(CNCC4CC4)cc(Cl)n2)C3)CC2(CCC2)C1 [Compound 255, 2-(6-Chloro-4-(((cyclopropylmethyl)amino)methyl)pyridin-2-yl)-6-(2-((4-methyl-4H-1,2,4-triazol-3-yl)methyl)spiro[3.3]heptan-2-yl)isoindolin-1-one] |
| < 80 | < 300 | C[C@H](N[C@H](C)C1CC1)c1cc(Cl)nc(N2Cc3ccc(C4(Cc5nncn5C)COC4)cc3C2=O)c1 (single isomer, unassigned) [Compound 240] |
| < 80 | 1000 to 10000 | Cc1cc(CNCC2CC2)cc(N2Cc3c(cc(-c4ccc(F)cc4-c4nncn4C)cc3C(F)(F)F)C2=O)n1 [Compound 256, 2-(4-(((Cyclopropylmethyl)amino)methyl)-6-methylpyridin-2-yl)-6-(4-fluoro-2-(4-methyl-4H-1,2,4-triazol-3-yl)phenyl)-4-(trifluoromethyl)isoindolin-1-one] |
| < 80 | < 300 | C[C@H]1CCCN(Cc2cc(Cl)nc(N3Cc4ccc(C5(Cc6nncn6C)CC(F)(F)C5)cc4C3=O)c2)C1 [Compound 152, (S)-2-(6-Chloro-4-((3-methylpiperidin-1-yl)methyl)pyridin-2-yl)-6-(3,3-difluoro-1-((4-methyl-4H-1,2,4-triazol-3-yl)methyl)cyclobutyl)isoindolin-1-one] |
| < 80 | < 300 | Cc1cc(CNCC(C)(C)O)cc(N2Cc3ccc(-c4ccc(F)cc4-c4nncn4C)cc3C2=O)n1 [Compound 309, 6-(4-Fluoro-2-(4-methyl-4H-1,2,4-triazol-3-yl)phenyl)-2-(4-(((2-hydroxy-2-methylpropyl)amino)methyl)-6-methylpyridin-2-yl)isoindolin-1-one] |
| 300 to 5000 | 1000 to 10000 | Cn1cnnc1CC1(c2ccc3c(c2)C(=O)N(c2cc(CN4CCc5ccccc5C4)cc(C(F)(F)F)n2)C3)COC1 [Compound 31, 2-(4-((3,4-Dihydroisoquinolin-2(1H)-yl)methyl)-6-(trifluoromethyl)pyridin-2-yl)-6-(3-((4-methyl-4H-1,2,4-triazol-3-yl)methyl)oxetan-3-yl)isoindolin-1-one] |
| < 80 | < 300 | Cn1cnnc1CC1(c2ccc3c(c2)C(=O)N(c2cc(CNCC4CCCC4)cc(Cl)n2)C3)COC1 [Compound 159, 2-(6-Chloro-4-(((cyclopentylmethyl)amino)methyl)pyridin-2-yl)-6-(3-((4-methyl-4H-1,2,4-triazol-3-yl)methyl)oxetan-3-yl)isoindolin-1-one] |
| < 80 | < 300 | Cn1cnnc1CC1(c2ccc3c(c2)C(=O)N(c2cc(CN4CCCCC4)cc(Cl)n2)C3)COC1 [Compound 64, 2-(6-Chloro-4-(piperidin-1-ylmethyl)pyridin-2-yl)-6-(3-((4-methyl-4H-1,2,4-triazol-3-yl)methyl)oxetan-3-yl)isoindolin-1-one] |
| < 80 | 1000 to 10000 | Cn1cnnc1CC1(c2ccc3c(c2)C(=O)N(c2cc(CNC4CCCC4O)cc(Cl)n2)C3)COC1 (stereo not drawn) [Compound 193, 2-(6-Chloro-4-(((2-hydroxycyclopentyl)amino)methyl)pyridin-2-yl)-6-(3-((4-methyl-4H-1,2,4-triazol-3-yl)methyl)oxetan-3-yl)isoindolin-1-one] |
| < 80 | < 300 | Cc1cc(CNCC2CC(F)(F)C2)cc(N2Cc3ccc(-c4ccc(F)cc4-c4nncn4C)cc3C2=O)n1 [Compound 260, 2-(4-((((3,3-Difluorocyclobutyl)methyl)amino)methyl)-6-methylpyridin-2-yl)-6-(4-fluoro-2-(4-methyl-4H-1,2,4-triazol-3-yl)phenyl)isoindolin-1-one] |
| < 80 | < 300 | C[C@@H](NC1CCCC1)c1cc(Cl)nc(N2Cc3ccc(C4(Cc5nncn5C)COC4)cc3C2=O)c1 (single isomer, unassigned) [Compound 232] |
| 300 to 5000 | 1000 to 10000 | Cn1cnnc1CC1(c2ccc3c(c2)C(=O)N(c2cc(CN4CCCc5c4cnn5C)cc(C(F)(F)F)n2)C3)COC1 [Compound 92, 2-(4-((1-Methyl-1,5,6,7-tetrahydro-4H-pyrazolo[4,3-b]pyridin-4-yl)methyl)-6-(trifluoromethyl)pyridin-2-yl)-6-(3-((4-methyl-4H-1,2,4-triazol-3-yl)methyl)oxetan-3-yl)isoindolin-1-one] |
| < 80 | 300 to 1000 | Cn1cnnc1-c1cc(Cl)ccc1-c1ccc2c(c1)C(=O)N(c1cc(Cl)cc(CNCC3CC3)c1)C2 [Compound 119, 6-(4-Chloro-2-(4-methyl-4H-1,2,4-triazol-3-yl)phenyl)-2-(3-chloro-5-(((cyclo-propylmethyl)amino)methyl)phenyl)isoindolin-1-one] |
| < 80 | < 300 | CC(Cc1nncn1C)c1ccc2c(c1)C(=O)N(c1cc(CN3CCC[C@H](C)C3)cc(Cl)n1)C2 (stereo partly drawn) [Compound 83, 2-(6-Chloro-4-(((S)-3-methylpiperidin-1-yl)methyl)pyridin-2-yl)-6-(1-(4-methyl-4H-1,2,4-triazol-3-yl)propan-2-yl)isoindolin-1-one] |
| < 80 | < 300 | C[C@H]1C[C@H](C)CN(Cc2cc(Cl)nc(N3Cc4ccc(C5(Cc6nncn6C)COC5)cc4C3=O)c2)C1 [Compound 60, 2-(6-Chloro-4-(((3S,5S)-3,5-dimethylpiperidin-1-yl)methyl)pyridin-2-yl)-6-(3-((4-methyl-4H-1,2,4-triazol-3-yl)methyl)oxetan-3-yl)isoindolin-1-one] |
| < 80 | < 300 | Cc1cc(C(C)NCC2CCC2)cc(N2Cc3ccc(-c4ccc(Cl)cc4-c4nncn4C)cc3C2=O)n1 (stereo not drawn) [Compound 278, 6-(4-Chloro-2-(4-methyl-4H-1,2,4-triazol-3-yl)phenyl)-2-(4-(1-((cyclobutyl-methyl)amino)ethyl)-6-methylpyridin-2-yl)isoindolin-1-one] |
